Test results from US6653321B1, “Naphthylsulfonic acids and related compounds as glucose uptake agonists” (Telik, Inc., priority 1999, dated 2003).

Target: T1, β-kinase domain of the human insulin receptor (CKD) (Homo sapiens, UniProt P06213)
T1 construct: The complete β-kinase domain of the human insulin receptor (CKD); made in house
Assay: 32P-Cytoplasmic Kinase Domain (CKD) autophosphorylation assay
Format: biochemical
Conditions: 32P incorporated into CKD band, percentage of the vehicle (DMSO) level; 10 minutes at room temperature; compound concentration not given
Experimental: The complete β-kinase domain of the human insulin receptor (CKD) was expressed in, and purified from, baculovirus. CKD (4.0 μg/mL), in a solution of 50 mM Tris.HCl, 2 mM MnCl2, 10 mM MgCl2 (50 μl final volume), was combined with […] ATP, and 5 μCi ^32P-ATP (3000 Ci/mmol.). A test compound, or the vehicle (DMSO), was added to a final DMSO concentration of 1%. The mixture was incubated for 10 minutes at room temperature. The reaction was terminated by the addition of 10 μl of 200 mM EDTA. A 30 μl volume was removed, mixed with 5 μl of 6×Laemmeli sodium dodecyl sulfate (SDS) treatment buffer, and heated to 94° C. for 5 minutes. A 20 μl aliquot was then run on an SDS-PAGE gel. The radioactivity incorporated into the CKD band is quantified by phosphorimaging of the gel, or scintillation counting of the excised bands.
The potency of a compound for increasing phosphorylation is expressed as a percentage of the vehicle level.

T1 sequence (P06213 980-1382 limits assumed): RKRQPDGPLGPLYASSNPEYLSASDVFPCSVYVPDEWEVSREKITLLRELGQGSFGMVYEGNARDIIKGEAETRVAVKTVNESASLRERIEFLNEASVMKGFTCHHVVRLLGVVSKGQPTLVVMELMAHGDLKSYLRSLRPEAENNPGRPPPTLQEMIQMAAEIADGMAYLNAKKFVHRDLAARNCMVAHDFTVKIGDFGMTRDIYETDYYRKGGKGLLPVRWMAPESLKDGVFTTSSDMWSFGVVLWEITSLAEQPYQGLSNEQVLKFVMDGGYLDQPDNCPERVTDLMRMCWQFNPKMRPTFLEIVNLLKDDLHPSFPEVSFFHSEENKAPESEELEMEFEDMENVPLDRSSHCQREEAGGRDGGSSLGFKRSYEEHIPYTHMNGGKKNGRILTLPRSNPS

SMILES | Activity (% Control)
O=C(Nc1cccc2cc(S(=O)(=O)O)ccc12)c1cc(NC(=O)C2CCCCC2)cc(C(=O)Nc2cccc3cc(S(=O)(=O)O)ccc23)c1 [Compound 33, 5-({3-(cyclohexylcarbonylamino)-5-[N-(6-sulfonaphthyl)carbamoyl]phenyl}carbonylamino)naphthalene-2-sulfonic acid] | 122.5
O=C(CC(C(=O)O)c1ccccc1)Nc1cc(C(=O)Nc2cccc3cc(S(=O)(=O)O)ccc23)cc(C(=O)Nc2cccc3cc(S(=O)(=O)O)ccc23)c1 (stereo not drawn) [Compound 28, 3-(N-{3,5-bis[N-(6-sulfonaphthyl)carbamoyl]phenyl}carbamoyl)-2-phenylpropanoic acid] | 84.6
COc1ccc(S(=O)(=O)Nc2cc(C(=O)Nc3cccc4cc(S(=O)(=O)O)ccc34)cc(C(=O)Nc3cccc4cc(S(=O)(=O)O)ccc34)c2)cc1 [Compound 52, 5-[(3-{[(4-methoxyphenyl)sulfonyl]amino}-5-[N-(6-sulfonaphthyl)carbamoyl]phenyl)carbonylamino]naphthalene-2-sulfonic acid] | 111.1
O=C(Nc1cc(C(=O)Nc2cccc3cc(S(=O)(=O)O)ccc23)cc(C(=O)Nc2cccc3cc(S(=O)(=O)O)ccc23)c1)Nc1ccccc1Cl [Compound 59, 5-[(3-{[(2-chlorophenyl)amino]carbonylamino}-5-[N-(6-sulfonaphthyl)carbamoyl]phenyl)carbonylamino]naphthalene-2-sulfonic acid] | 120.4
O=C(Nc1cc(C(=O)Nc2cccc3cc(S(=O)(=O)O)ccc23)cc(C(=O)Nc2cccc3cc(S(=O)(=O)O)ccc23)c1)c1ccc(F)cc1 [Compound 12, 5-({3-[(4-fluorophenyl)carbonylamino]-5-[N-(6-sulfonaphthyl)carbamoyl]phenyl}carbonylamino)naphthalene-2-sulfonic acid] | 88.6
O=C(Nc1ccccc1)Nc1cc(C(=O)Nc2cccc3cc(S(=O)(=O)O)ccc23)cc(C(=O)Nc2cccc3cc(S(=O)(=O)O)ccc23)c1 [Compound 66, 5-({3-[(phenylamino)carbonylamino]-5-[N-(6-sulfonaphthyl)carbamoyl]phenyl}carbonylamino)naphthalene-2-sulfonic acid] | 115.5
O=C(Cc1cccc(Cl)c1)Nc1cc(C(=O)Nc2cccc3cc(S(=O)(=O)O)ccc23)cc(C(=O)Nc2cccc3cc(S(=O)(=O)O)ccc23)c1 [Compound 44, 5-({3-[2-(3-chlorophenyl)acetylamino]-5-[N-(6-sulfonaphthyl)carbamoyl]phenyl}carbonylamino)naphthalene-2-sulfonic acid] | 124.8
O=C(Nc1cccc2cc(S(=O)(=O)O)ccc12)c1cc(NC(=O)c2ccccc2S(=O)(=O)O)cc(C(=O)Nc2cccc3cc(S(=O)(=O)O)ccc23)c1 [Compound 29, 5-({5-[N-(6-sulfonaphthyl)carbamoyl]-3-[(2-sulfophenyl)carbonylamino]phenyl}carbonylamino)naphthalene-2-sulfonic acid] | 75.6
COc1ccc(CC(=O)Nc2cc(C(=O)Nc3cccc4cc(S(=O)(=O)O)ccc34)cc(C(=O)Nc3cccc4cc(S(=O)(=O)O)ccc34)c2)cc1 [Compound 41, 5-({3-[2-(4-methoxyphenyl)acetylamino]-5-[N-(6-sulfonaphthyl)carbamoyl]phenyl}carbonylamino)naphthalene-2-sulfonic acid] | 136.6
O=C(Nc1cc(C(=O)Nc2cccc3cc(S(=O)(=O)O)ccc23)cc(C(=O)Nc2cccc3cc(S(=O)(=O)O)ccc23)c1)c1ccncc1 [Compound 35, 5-({3-(4-pyridylcarbonylamino)-5-[N-(6-sulfonaphthyl)carbamoyl]phenyl}carbonylamino)naphthalene-2-sulfonic acid] | 105.9
O=C(Nc1cccc2cc(S(=O)(=O)O)ccc12)c1cc(NS(=O)(=O)c2cccc3ccccc23)cc(C(=O)Nc2cccc3cc(S(=O)(=O)O)ccc23)c1 [Compound 54, 5-({3-[(1-naphthylsulfonyl)amino]-5-[N-(6-sulfonaphthyl)carbamoyl]phenyl}carbonylamino)naphthalene-2-sulfonic acid] | 46.5
Cc1ccc(NC(=O)CCC(=O)Nc2cc(C(=O)Nc3cccc4cc(S(=O)(=O)O)ccc34)cc(C(=O)Nc3cccc4cc(S(=O)(=O)O)ccc34)c2)cc1 [Compound 42, 5-[(3-{3-[N-(4-methylphenyl)carbamoyl]propanoylamino}-5-[N-(6-sulfonaphthyl)carbamoyl]phenyl)carbonylamino]naphthalene-2-sulfonic acid] | 116.7
COc1cccc(NC(=O)Nc2cc(C(=O)Nc3cccc4cc(S(=O)(=O)O)ccc34)cc(C(=O)Nc3cccc4cc(S(=O)(=O)O)ccc34)c2)c1 [Compound 64, 5-[(3-{[(3-methoxyphenyl)amino]carbonylamino}-5-[N-(6-sulfonaphthyl)carbamoyl]phenyl)carbonylamino]naphthalene-2-sulfonic acid] | 58.3
O=C(Nc1cccc2cc(S(=O)(=O)O)ccc12)c1cc(NC(=O)c2ccco2)cc(C(=O)Nc2cccc3cc(S(=O)(=O)O)ccc23)c1 [Compound 34, 5-({3-(2-furylcarbonylamino)-5-[N-(6-sulfonaphthyl)carbamoyl]phenyl}carbonylamino)naphthalene-2-sulfonic acid] | 119.5
O=C(Nc1cccc2cc(S(=O)(=O)O)ccc12)c1cc(NS(=O)(=O)c2ccc(Cl)cc2)cc(C(=O)Nc2cccc3cc(S(=O)(=O)O)ccc23)c1 [Compound 50, 5-[(3-{[(4-chlorophenyl)sulfonyl]amino}-5-[N-(6-sulfonaphthyl)carbamoyl]phenyl)carbonylamino]naphthalene-2-sulfonic acid] | 123.8
COc1ccccc1NC(=O)Nc1cc(C(=O)Nc2cccc3cc(S(=O)(=O)O)ccc23)cc(C(=O)Nc2cccc3cc(S(=O)(=O)O)ccc23)c1 [Compound 63, 5-[(3-{[(2-methoxyphenyl)amino]carbonylamino}-5-[N-(6-sulfonaphthyl)carbamoyl]phenyl)carbonylamino]naphthalene-2-sulfonic acid] | 94.4
O=C(O)c1cccc(C(=O)Nc2cc(C(=O)Nc3cccc4cc(S(=O)(=O)O)ccc34)cc(C(=O)Nc3cccc4cc(S(=O)(=O)O)ccc34)c2)c1 [Compound 30, 3-(N-{3,5-bis[N-(6-sulfonaphthyl)carbamoyl]phenyl}carbamoyl)benzoic acid] | 84.1
Cc1ccc(NC(=O)Nc2cc(C(=O)Nc3cccc4cc(S(=O)(=O)O)ccc34)cc(C(=O)Nc3cccc4cc(S(=O)(=O)O)ccc34)c2)cc1 [Compound 62, 5-[(3-{[(4-methylphenyl)amino]carbonylamino}-5-[N-(6-sulfonaphthyl)carbamoyl]phenyl)carbonylamino]naphthalene-2-sulfonic acid] | 102.8
O=C(O)CC(C(=O)Nc1cc(C(=O)Nc2cccc3cc(S(=O)(=O)O)ccc23)cc(C(=O)Nc2cccc3cc(S(=O)(=O)O)ccc23)c1)c1ccccc1 (stereo not drawn) [Compound 27, 3-(N-{3,5-bis[N-(6-sulfonaphthyl)carbamoyl]phenyl}carbamoyl)-3-phenylpropanoic acid] | 161.2
Cc1ccc(S(=O)(=O)Nc2cc(C(=O)Nc3cccc4cc(S(=O)(=O)O)ccc34)cc(C(=O)Nc3cccc4cc(S(=O)(=O)O)ccc34)c2)cc1 [Compound 53, 5-[(3-{[(4-methylphenyl)sulfonyl]amino}-5-[N-(6-sulfonaphthyl)carbamoyl]phenyl)carbonylamino]naphthalene-2-sulfonic acid] | 105.7
COc1ccc(NC(=O)Nc2cc(C(=O)Nc3cccc4cc(S(=O)(=O)O)ccc34)cc(C(=O)Nc3cccc4cc(S(=O)(=O)O)ccc34)c2)cc1 [Compound 65, 5-[(3-{[(4-methoxyphenyl)amino]carbonylamino}-5-[N-(6-sulfonaphthyl)carbamoyl]phenyl)carbonylamino]naphthalene-2-sulfonic acid] | 85.9
